Data published in patent publication US20240209092A1, “COMBINATION THERAPIES FOR TREATING CANCER” (ADAGENE INC., priority 2021, published 2024).

What was measured:
[1] = system: Renca murine kidney cancer cells; test: Renca cancer model, TY21580 with Anlotinib; format: in vivo, mice
Protocol: Mice were inoculated subcutaneously with Renca murine kidney cancer cells. […] Anlotinib at 3 mg/kg was p.o. dosed daily for 17 doses.

[2] = system: 4T1 cancer model; details: Day 35; TY21580 2 mg/kg i.p. biweekly four doses, Docetaxel 10 mg/kg i.v. weekly 3 doses
Protocol: Dosing started when average tumor volume reached about 90 mm^3 (n=8 per group). When the mean tumor volume reached 90 mm^3, the tumor bearing mice were randomized into different treatment groups of eight mice each. […] Docetaxel at 10 mg/kg was i.v. dosed weekly for 3 doses.

[3] = system: CT26 cancer model; test: CT26 cancer model, TY21580 with Fruquintinib; format: in vivo, mice
Protocol: Dosing started when average tumor volume reached about 120 mm^3 (n=8 per group). […] Fruquintinib at 5 mg/kg was p.o. dosed daily for 3 weeks.

[4] = system: EMT6 murine breast cancer cells; test: EMT6 cancer model, TY21580 with Olaparib; format: in vivo, mice; details: Olaparib 50 mg/kg p.o. daily for 21 doses
Protocol: Mice were inoculated subcutaneously with EMT6 murine breast cancer cells. […] Intraperitoneal administration of TY21580 at 0.1 mg/kg was initiated on a biweekly schedule. Olaparib at 50 mg/kg was p.o. dosed daily for 21 doses.

[5] = system: 4T1 breast cancer cells; test: 4T1 breast cancer model, ADG106 with TY21580; format: in vivo, BALB/c mice; details: TY21580 2 mg/kg, ADG106 5 mg/kg, i.p. twice a week for 2 weeks
[6] = system: B16F10 murine melanoma tumor cells; test: B16F10 melanoma model, ADG106 with TY21580 (FIG. 17); format: in vivo, mice; details: 5 mg/kg each, IP twice a week from tumor inoculation
Protocol: All antibodies were dosed twice a week.

[7] = system: MC38 murine colon tumor cells; test: MC38 cancer model, TY22404 with ADG106; format: in vivo, mice; details: Day 27 post tumor cell inoculation; 5 mg/kg each, i.p. biweekly four doses
Protocol: FIG. 25 provides the results of TY22404 administered in combination with ADG106 antibody in the MC38 cancer model to assess in vivo antitumor efficacy of the combination treatment. Mice were inoculated subcutaneously with MC38 murine colon tumor cells. […] Intraperitoneal administration of test antibodies was initiated on a biweekly schedule for four doses. Tumor growth inhibition (TGI) relative to the isotype control group was evaluated on Day 27 post tumor cell inoculation.

[8] = system: EMT6 murine breast cancer cells; test: EMT6 cancer model, ADG106 with TY21580; format: in vivo, mice; details: ADG106 0.5 mg/kg, TY21580 0.1 mg/kg, i.p. biweekly
Protocol: FIGS. 19A-19B provide the results of ADG106 administered in combination with TY21580 in the EMT6 cancer model to assess in vivo antitumor efficacy of ADG106 and TY21580 combination treatment. Mice were inoculated subcutaneously with EMT6 murine breast cancer cells. […] Intraperitoneal administration of 0.5 mg/kg ADG106 or 0.1 mg/kg TY21580, or combination of these two agents, was initiated on a biweekly schedule.

[9] = system: CT26 murine colon tumor cells; test: CT26 colon cancer model, ADG106 with TY21580 (FIGS. 12A-12B); format: in vivo, mice; details: Day 19; ADG106 0.2 mg/kg and/or TY21580 0.2 mg/kg, IP twice a week
Protocol: FIGS. 12A-12B provide the results of ADG106 administered in combination with TY21580 in the mouse CT26 colon cancer model to assess in vivo antitumor efficacy of ADG106 and TY21580 combination treatment. Mice were inoculated subcutaneously with CT26 murine colon tumor cells. […] These groups received either 1 mg/kg isotype control, 0.2 mg/kg ADG106, 0.2 or 1 mg/kg TY21580, or a combination of ADG106 and TY21580 at the same doses by IP injection. All antibodies were dosed twice a week.

[10] = system: MC38 murine colon tumor cells; test: MC38 colon cancer model, ADG106 with TY21580 (FIGS. 13A-13B); format: in vivo, mice; details: Day 33; ADG106 10 mg/kg alone
Protocol: Mice were inoculated subcutaneously with MC38 murine colon tumor cells. […] These groups received either 10 mg/kg isotype control, 10 mg/kg ADG106, 0.2 or 2 mg/kg TY21580, or a combination of ADG106 and TY21580 at the same doses by IP injection. All antibodies were dosed twice a week for 4 weeks. […] No adverse effects were observed on body weights with these treatments.

[11] = system: A20 murine B lymphoma cells; test: A20 cancer model, ADG106 with TY21580; format: in vivo, mice; details: ADG106 5 mg/kg, TY21580 0.5 mg/kg, i.p. biweekly, 4 doses
Protocol: FIGS. 18A-18B provide the results of ADG106 administered in combination with TY21580 in the A20 cancer model to assess in vivo antitumor efficacy of ADG106 and TY21580 combination treatment. Mice were inoculated subcutaneously with A20 murine B lymphoma cells. […] Intraperitoneal administration of 5 mg/kg ADG106 or 0.5 mg/kg TY21580, or combination of these two agents, was initiated on a biweekly schedule for 4 doses.

[12] = system: 4T1 murine breast cancer cells; test: 4T1 cancer model, TY22404 with ADG106; format: in vivo, mice; details: Day 33; 5 mg/kg TY22404 and/or ADG106 i.p. biweekly, four doses
Protocol: Mice were inoculated subcutaneously with 4T1 murine breast cancer cells. […] Intraperitoneal administration of Vehicle, 5 mg/kg TY22404 or ADG106, or combination of these two agents, was initiated on a biweekly schedule for four doses.

COc1cc2c(Oc3ccc4[nH]c(C)cc4c3F)ccnc2cc1OCC1(N)CC1 [Anlotinib]
TGI vs vehicle control ([1]; Day 29, Anlotinib 3 mg/kg p.o. daily for 17 doses): 93% | antitumor effect vs vehicle control, in words ([1]; TY21580 5 mg/kg i.p. biweekly four doses, Anlotinib 3 mg/kg p.o. daily): strong antitumor activity

CC(=O)O[C@@]12CO[C@@H]1C[C@H](O)[C@@]1(C)C(=O)[C@H](O)C3=C(C)[C@@H](OC(=O)[C@H](O)[C@@H](NC(=O)OC(C)(C)C)c4ccccc4)C[C@@](O)([C@@H](OC(=O)c4ccccc4)[C@H]21)C3(C)C [Docetaxel, reference compound]
TGI vs vehicle control [2]: 38.3%

CNC(=O)c1c(C)oc2cc(Oc3ncnc4cc(OC)c(OC)cc34)ccc12 [Fruquintinib, reference compound]
antitumor activity vs isotype control, in words ([3]; TY21580 0.1 mg/kg i.p. biweekly four doses, Fruquintinib 5 mg/kg p.o. daily for 3 weeks): partial antitumor activity | complete response (CR) ([3]; TY21580 0.1 mg/kg, Fruquintinib 5 mg/kg, n=8 per group): no complete response

O=C(c1cc(Cc2n[nH]c(=O)c3ccccc23)ccc1F)N1CCN(C(=O)C2CC2)CC1 [Olaparib, reference compound]
antitumor effect vs vehicle control, in words [4]: no significant antitumor effect

ADG106: anti-CD137 antibody, heavy chain SEQ ID NO: 240, light chain SEQ ID NO: 241
anti-tumor activity vs isotype control, in words [5]: showed anti-tumor activity | antitumor activity vs isotype control, in words [6]: did not inhibit tumor growth | Tumor growth inhibition (TGI) relative to isotype control [7]: 21% | antitumor activity vs vehicle control, in words [8]: significant antitumor activity | TGI vs isotype control [9]: 47% | tumor growth inhibition, in words [10]: did not inhibit tumor growth | antitumor activity vs vehicle control, in words [11]: partial antitumor activity | TGI vs vehicle control [12]: 10%
